Test results from patent US12534514B2, “Biological and synthetic molecules inhibiting respiratory syncytial virus infection” (Fraunhofer-Gesellschaft zur Förderung der angewandten …, priority 2019, dated 2026).
Square brackets hold non-standard residues; d marks the D form. Tyr(3,5-I2) = N[C@@H](Cc1cc(I)c(O)c(I)c1)C(=O)O; Chg = N[C@H](C(=O)O)C1CCCCC1; Cpa = not defined here

What was measured:
active RSV = assay: ELISA binding of DNA-peptide construct to RSV; details: peptides coupled to DNA; FIG. 6B
From the text: FIG. 6: Binding of novel DNA-Peptide construct to RSV. […] The single compounds are not in a representative scale. TMB=3,3′,5,5′-Tetramethylbenzidine, HRP=Horseradish peroxidase. […] “Only Anti-RSV antibody” and “Anti-RSV antibody+RSV” represent internal ELISA controls and lack components described in FIG. 6A. The other three samples have all components described in FIG. 6A. Each bar results from the mean values of triplicates±SD.
Binding of newly developed peptides 6 (Ac-[Chg][Cpa]VSTT[Tyr3,5-I2]LPHYFDN-NH2) and 12 (Ac-[Chg][Nle][Chg]STTYLPHYFDN-NH2) to active RSV was verified by enzyme-linked immunosorbent assay (FIG. 6).
FIG. 6A illustrates the scheme of the used ELISA. It has to be noted that the single compounds are not in a representative scale. […] Unspecific binding of RSV and/or RSV-antibody to neutravidin was excluded by using the two other controls.

[1] = tested on: RSV (ATCC VR-26—Long strain); assay: RSV plaque reduction assay on human epithelial cells (HEp-2); type: cell-based
Protocol: FIG. 1: Scheme of the used inhibition experiments. RSV-plaque reduction assay on human epithelial cells (HEp-2). HEp-2 cells were seeded in 96-well plate 24 h prior to infection (left). Next day, cells were infected with RSV (middle, white arrow). Simultaneously, peptides at concentrations of 20 μM were added to the cells (middle, black arrow). The inhibitory activity was determined 48 post infection by counting viral plaques after immunocytochemical staining using RSV-specific monoclonal antibody (right, black-checked arrow).
The designed peptides were synthesized and screened for their inhibitory activity against RSV in a cell culture-based plaque reduction assay as illustrated in FIG. 1. In detail, Anti-RSV activity was assessed in plaque reduction assay as follows: HEp-2 cells were seeded in a 96-well plate 24 h prior to infection. […] The inhibitory activity was determined 48 h post infection by counting viral plaques after immunocytochemical staining using RSV-specific monoclonal antibody.
Anti-RSV activity was assessed in plaque reduction assay. […] The inhibitory activity was determined 48 h post infection by counting viral plaques after immunocytochemical staining using RSV-specific antibody.
In detail, anti-RSV activity was assessed in plaque reduction assay. […] Viral plaques were counted after immunocytochemical staining using RSV-specific antibody at 48 h after infection. […]

Substance | binding to active RSV (ELISA) (active RSV) | inhibition of infection with RSV on human epithelial cells ([1]; concentration of 20 μM, RSV Long, 48 h post infection, FIG. 3B) | inhibition of infection with RSV on human epithelial cells (screen of truncated peptides, FIG. 2) ([1]; peptides at 20 μM added simultaneously with RSV, plaques counted 48 h post infection)
Ac-[Chg][Cpa]VSTT[Tyr3,5-I2]LPHYFDN-NH2 (Ac-[Chg][Cpa]VSTT[Tyr(3,5-I2)]LPHYFDN-NH2; reading uncertain; also: printed as Ac-[Chg][Cpa]VSTT[Tyr3,5-I2]LPHYFDN-NH2) [peptide 6] | verified | – | –
Ac-[Chg][Nle][Chg]STTYLPHYFDN-NH2 (XXXSTTYLPHYFDN; HELM PEPTIDE1{[ac].[O=C([C@@H](N[*:1])C1CCCCC1)[*:2]].[Nle].[O=C([C@@H](N[*:1])C1CCCCC1)[*:2]].S.T.T.Y.L.P.H.Y.F.D.N.[am]}$$$$V2.0; SMILES CCCC[C@H](NC(=O)[C@@H](NC(C)=O)C1CCCCC1)C(=O)N[C@H](C(=O)N[C@@H](CO)C(=O)N[C@H](C(=O)N[C@H](C(=O)N[C@@H](Cc1ccc(O)cc1)C(=O)N[C@@H](CC(C)C)C(=O)N1CCC[C@H]1C(=O)N[C@@H](Cc1c[nH]cn1)C(=O)N[C@@H](Cc1ccc(O)cc1)C(=O)N[C@@H](Cc1ccccc1)C(=O)N[C@@H](CC(=O)O)C(=O)N[C@@H](CC(N)=O)C(N)=O)[C@@H](C)O)[C@@H](C)O)C1CCCCC1) [peptide 12] | verified | – | –
LVVSTTYLPHYFDN (Ac-LVVSTTYLPHYFDN-NH2) | – | > 50% | able to inhibit infection with RSV
